Where “and” joins values, the source holds several entries; their conditions need not be identical. Equal entries are not always repeated. Inconclusive results and toxic doses are left out.

In the assay the test system is BDF1 mice, P388 leukemia ip, median survival T/C. Kind of assay: NCI In Vivo Anticancer Drug Screen. Data for tumor model P388 Leukemia (intraperitoneal) in B6D2F1 (BDF1) mice. The note with it: endpoint: median survival time, higher = longer survival. The procedure, abridged:
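Mice carrying the transplantable tumour receive compound or vehicle. Survival is followed in each arm, and the treated measure is divided by the vehicle measure.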

[1] abbreviates: dose: 12.5 mg/kg/injection, schedule: Q01DX009 (ip), vehicle: saline with Tween-80.
Setting [2] is: dose: 25.0 mg/kg/injection, schedule: Q01DX009 (ip), vehicle: saline with Tween-80.
The mark [3] stands for this setting: dose: 50.0 mg/kg/injection, schedule: Q01DX009 (ip), vehicle: saline with Tween-80.
Setting [4] is: dose: 50.0 mg/kg/injection, schedule: Q04DX003 (ip), vehicle: saline with Tween-80.
Where [5] appears, read: dose: 12.5 mg/kg/injection, schedule: Q01DX009 (ip), vehicle: Klucel (hydroxypropylcellulose) (HPC).
The mark [6] stands for this setting: dose: 25.0 mg/kg/injection, schedule: Q01DX009 (ip), vehicle: Klucel (hydroxypropylcellulose) (HPC).
Setting [7] is: dose: 50.0 mg/kg/injection, schedule: Q01DX009 (ip), vehicle: Klucel (hydroxypropylcellulose) (HPC).
Setting [8] is: dose: 100.0 mg/kg/injection, schedule: Q01DX009 (ip), vehicle: Klucel (hydroxypropylcellulose) (HPC).
The mark [9] stands for this setting: dose: 200.0 mg/kg/injection, schedule: Q01DX009 (ip), vehicle: Klucel (hydroxypropylcellulose) (HPC).
Setting [10] is: dose: 100.0 mg/kg/injection, schedule: Q04DX003 (ip), vehicle: saline.
Where [11] appears, read: dose: 100.0 mg/kg/injection, schedule: Q04DX003 (ip), vehicle: saline with Tween-80.

Take `O=[N+]([O-])c1cc2no[n+]([O-])c2cc1N1CCN(c2cc3c(cc2[N+](=O)[O-])no[n+]3[O-])CC1`: the T/C was 97 % of control (dose: 15.0 mg/kg/injection, schedule: Q01DX009 (ip), vehicle: saline with Tween-80); 98 % of control (dose: 30.0 mg/kg/injection, schedule: Q01DX009 (ip), vehicle: saline with Tween-80); 97 % of control (dose: 60.0 mg/kg/injection, schedule: Q01DX009 (ip), vehicle: saline with Tween-80).
For `CCCCCCCCCCSS(=O)(=O)O`, the T/C is 87 % of control (dose: 25.0 mg/kg/injection, schedule: Q01DX001 (ip), vehicle: other); 95 % of control (dose: 50.0 mg/kg/injection, schedule: Q01DX001 (ip), vehicle: other); 95 % of control (dose: 100.0 mg/kg/injection, schedule: Q01DX001 (ip), vehicle: other).
As for `CC1(C)O[C@]2(C)CC[C@@H]1[C@H](O)[C@@H]2N1CCCC1`, the T/C runs as follows: (dose: 50.0 mg/kg/injection, schedule: Q01DX005 (ip), vehicle: saline with Tween-80) 111 % of control; (dose: 100.0 mg/kg/injection, schedule: Q01DX005 (ip), vehicle: saline with Tween-80) 104 % of control.
With `CNC(C)(C)C(SS)c1ccc(Cl)cc1` (configuration not stated), the T/C is 110 % of control (dose: 6.25 mg/kg/injection, schedule: Q01DX009 (ip), vehicle: saline with Tween-80); 118 % of control under setting [1]; 105 % of control and 121 % of control under setting [2]; 101 % of control (dose: 25.0 mg/kg/injection, schedule: Q04DX003 (ip), vehicle: saline with Tween-80); 96 % of control and 110 % of control under setting [3]; 99 % of control under setting [4].
As to `CC(=O)O[C@]1(C(C)=O)CC[C@H]2[C@@H]3C[C@H](F)C4=CC(=O)CC[C@]4(C)[C@H]3CC[C@@]21C`, the T/C is, setting by setting: under setting [5], 109 % of control; under setting [6], 100 % of control; under setting [7], 100 % of control; under setting [8], 87 % of control; (dose: 100.0 mg/kg/injection, schedule: Q04DX003 (ip), vehicle: alcohol) 100 % of control; (dose: 200.0 mg/kg/injection, schedule: Q04DX003 (ip), vehicle: alcohol) 105 % of control. Further, the T/C (dose: 400.0 mg/kg/injection, schedule: Q04DX003 (ip), vehicle: alcohol) was 110 % of control.
As to `O=C1NC2(CCCCCC2)C(=O)N1CN1CCOCC1`, the T/C by setting is: (dose: 25.0 mg/kg/injection, schedule: Q04DX003 (ip), vehicle: saline sonified) 90 % of control; (dose: 50.0 mg/kg/injection, schedule: Q04DX003 (ip), vehicle: saline sonified) 95 % of control; (dose: 100.0 mg/kg/injection, schedule: Q04DX003 (ip), vehicle: saline sonified) 104 % of control.
For `CC(C)C(=O)Nc1ccc(Cl)cc1`, the T/C was 100 % of control (dose: 100.0 mg/kg/injection, schedule: Q01DX001 (ip), vehicle: saline with Tween-80); 100 % of control (dose: 200.0 mg/kg/injection, schedule: Q01DX001 (ip), vehicle: saline with Tween-80); 100 % of control (dose: 400.0 mg/kg/injection, schedule: Q01DX001 (ip), vehicle: saline with Tween-80).
In the case of `Clc1nc2nc(C(Cl)(Cl)Cl)[nH]c2nc1Cl`, the T/C was 95 % of control under setting [5], 108 % of control under setting [6] and 116 % of control under setting [7].
Regarding `NC(=O)CC(N)c1nn[nH]n1` (configuration not stated), the T/C is, setting by setting: (dose: 100.0 mg/kg/injection, schedule: Q01DX009 (ip), vehicle: saline) 95 % of control; (dose: 200.0 mg/kg/injection, schedule: Q01DX009 (ip), vehicle: saline) 100 % of control; (dose: 400.0 mg/kg/injection, schedule: Q01DX009 (ip), vehicle: saline) 90 % of control.
`COc1ccc2ccccc2c1C1NC(=O)c2ccccc2N1` (configuration not stated): the T/C reads like this: under setting [6], 115 % of control; under setting [7], 100 % of control; under setting [9], 166 % of control.
For `CC(=O)N1CCCCCC1=O`, the T/C runs as follows: under setting [3], 104 % of control; (dose: 100.0 mg/kg/injection, schedule: Q01DX009 (ip), vehicle: saline with Tween-80) 89 % of control; (dose: 200.0 mg/kg/injection, schedule: Q01DX009 (ip), vehicle: saline with Tween-80) 104 % of control; (dose: 400.0 mg/kg/injection, schedule: Q01DX009 (ip), vehicle: saline with Tween-80) 90 % of control.
In the case of `CN(C)c1ccc(/C=C/c2nc3ccccc3s2)cc1`, the T/C is, setting by setting: under setting [8], 100 % of control; (dose: 100.0 mg/kg/injection, schedule: Q04DX003 (ip), vehicle: Klucel (hydroxypropylcellulose) (HPC)) 112 % of control; under setting [9], 109 % of control; (dose: 200.0 mg/kg/injection, schedule: Q04DX003 (ip), vehicle: Klucel (hydroxypropylcellulose) (HPC)) 108 % of control; (dose: 400.0 mg/kg/injection, schedule: Q01DX009 (ip), vehicle: Klucel (hydroxypropylcellulose) (HPC)) 109 % of control; (dose: 400.0 mg/kg/injection, schedule: Q04DX003 (ip), vehicle: Klucel (hydroxypropylcellulose) (HPC)) 100 % of control.
With `CCC1SC(=S)N(c2ccc(S(N)(=O)=O)cc2)C1=O` (configuration not stated), the T/C is 96 % of control (dose: 33.75 mg/kg/injection, schedule: Q01DX009 (ip), vehicle: saline with Tween-80); 97 % of control (dose: 67.5 mg/kg/injection, schedule: Q01DX009 (ip), vehicle: saline with Tween-80); 97 % of control (dose: 135.0 mg/kg/injection, schedule: Q01DX009 (ip), vehicle: saline with Tween-80).
Consider `O=C(OCCBr)c1ccccc1[N+](=O)[O-]`, for which the T/C runs as follows: under setting [10], 100 % of control; (dose: 200.0 mg/kg/injection, schedule: Q04DX003 (ip), vehicle: saline) 104 % of control; (dose: 400.0 mg/kg/injection, schedule: Q04DX003 (ip), vehicle: saline) 109 % of control.
As for `O=C(CNC(c1ccccc1)(c1ccccc1)c1ccccc1)OC(c1ccccc1)c1ccccc1`, the T/C by setting is: under setting [11], 104 % of control; (dose: 200.0 mg/kg/injection, schedule: Q04DX003 (ip), vehicle: saline with Tween-80) 104 % of control; (dose: 400.0 mg/kg/injection, schedule: Q04DX003 (ip), vehicle: saline with Tween-80) 100 % of control.
In the case of `CCCCn1cnc2c(=S)nc(N)[nH]c21`, the T/C reads like this: under setting [1], 109 % of control; under setting [2], 118 % of control; (dose: 33.0 mg/kg/injection, schedule: Q04DX003 (ip), vehicle: saline with Tween-80) 100 % of control and 118 % of control; under setting [3], 118 % of control; under setting [4], 108 % of control and 118 % of control; (dose: 75.0 mg/kg/injection, schedule: Q04DX003 (ip), vehicle: saline with Tween-80) 122 % of control.
Regarding `OCC[P+](c1ccccc1)(c1ccccc1)c1ccccc1`, the T/C (dose: 25.0 mg/kg/injection, schedule: Q01DX001 (ip), vehicle: saline) is 108 % of control and the T/C (dose: 50.0 mg/kg/injection, schedule: Q01DX001 (ip), vehicle: saline) was 98 % of control.
`CC(=O)CC(C)=O.CC(=O)CC(C)=O.CC(=O)CC(C)=O.[Ga]`: the T/C (dose: 25.0 mg/kg/injection, schedule: Q04DX003 (ip), vehicle: saline) was 100 % of control; the T/C (dose: 50.0 mg/kg/injection, schedule: Q04DX003 (ip), vehicle: saline) is 95 % of control; the T/C under setting [10] is 86 % of control.
On to `COC(=O)c1[nH]cnc1/N=N\N(CCF)CCF`, for which the T/C (dose: 16.5 mg/kg/injection, schedule: Q01DX009 (ip), vehicle: saline with Tween-80) is 179 % of control; the T/C under setting [2] is 188 % of control; the T/C (dose: 37.5 mg/kg/injection, schedule: Q01DX009 (ip), vehicle: saline with Tween-80) was 166 % of control; the T/C (dose: 44.0 mg/kg/injection, schedule: Q04DX003 (ip), vehicle: saline with Tween-80) is 168 % of control; the T/C (dose: 66.0 mg/kg/injection, schedule: Q04DX003 (ip), vehicle: saline with Tween-80) is 218 % of control; the T/C under setting [11] is 86 % of control.

Source of the values: PubChem BioAssay AID328 (DTP/NCI, 2004).
